Measured values as given in PubChem BioAssay (NCI).
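The concentration for 50% growth inhibition is given as GI50. TGI is the concentration that stops growth completely.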

Assays:
Test in all cases: NCI-60 cell line screen, 384-well format
[1] = system: RXF 393 renal
[2] = system: CAKI-1 renal
[3] = system: NCI/ADR-RES ovarian
[4] = system: NCI-H23 lung
[5] = system: DU-145 prostate
[6] = system: HS 578T breast
[7] = system: COLO 205 colon
[8] = system: HCC-2998 colon
[9] = system: HCT-15 colon
[10] = system: HT29 colon
[11] = system: OVCAR-5 ovarian
[12] = system: UACC-62 melanoma
[13] = system: MDA-MB-468 breast
[14] = system: ACHN renal
[15] = system: OVCAR-8 ovarian
[16] = system: U251 glioblastoma
[17] = system: SW-620 colon
[18] = system: HOP-92 NSCLC
[19] = system: MDA-MB-435 melanoma
[20] = system: EKVX NSCLC
[21] = system: SNB-19 CNS
[22] = system: KM12 colon
[23] = system: BT-549 breast
[24] = system: SF-295 CNS
[25] = system: T-47D breast
[26] = system: HL-60(TB) leukemia
[27] = system: OVCAR-3 ovarian
[28] = system: SK-OV-3 ovarian

Cc1cc(Cl)cc(OCCn2cc(F)cn2)c1-c1nc(N)nc2c1CN(C(=O)NCC(C)(F)F)C2
TGI [1]: 842 nM
GI50 [2]: 163 nM
TGI [2]: > 100000 nM
GI50 [3]: 5110 nM
TGI [3]: 63000 nM
GI50 [4]: 32.1 nM
TGI [4]: 95.4 nM
GI50 [5]: 40.5 nM
TGI [5]: 1750 nM
GI50 [6]: 46.8 nM
TGI [6]: 302 nM
GI50 [7]: 30.6 nM
TGI [7]: 136 nM
GI50 [8]: 21.5 nM
TGI [8]: 71.4 nM
GI50 [9]: 339 nM
TGI [9]: > 100000 nM
GI50 [10]: 35 nM
TGI [10]: 16800 nM
GI50 [11]: 115 nM
TGI [11]: > 100000 nM
GI50 [12]: 54.3 nM
TGI [12]: 300 nM
GI50 [13]: 34 nM
TGI [13]: 76 nM
GI50 [14]: 389 nM
TGI [14]: > 100000 nM
GI50 [15]: 43.1 nM
TGI [15]: 181 nM
GI50 [16]: 37.9 nM
TGI [16]: 130 nM
GI50 [17]: 38.5 nM
TGI [17]: 268 nM
GI50 [18]: 73.3 nM
TGI [18]: 279 nM
GI50 [19]: 83.1 nM
TGI [19]: > 100000 nM
GI50 [20]: 90.2 nM
TGI [20]: 31100 nM
GI50 [21]: 122 nM
TGI [21]: 24400 nM
GI50 [22]: 37.3 nM
TGI [22]: 802 nM
GI50 [23]: 36.3 nM
TGI [23]: 769 nM
GI50 [24]: 58.9 nM
TGI [24]: 230 nM
GI50 [25]: 43.8 nM
TGI [25]: 307 nM
GI50 [26]: 32.5 nM
TGI [26]: 71.2 nM
GI50 [27]: 41.6 nM
TGI [27]: 939 nM
GI50 [28]: 121 nM
TGI [28]: > 100000 nM
